From paper PMC8699261, “Structural Characterization of Rat Galectin-5, an N-Tailed Monomeric Proto-Type-like Galectin” (Biomolecules, 2021)
Several values for one entry are separate records, joined by “and”; a condition that tells them apart may be missing. Equal entries are not always repeated. Where two headings read alike, the source gives them in different places.

How the values were obtained:
rat galectin-5 (rGal-5) [1] = biological target: T1, rat galectin-5 (rGal-5) (Rattus norvegicus, UniProt P47967); assay: Glycan array (609 compounds) tested with biotinylated rGal-5, Alexa555-streptavidin detection; assay type: binding; details: 100 µg/mL biotinylated rGal-5; ranking in words
T1 construct: we used the full-length protein to obtain structural information on the N-terminal tail; made in house
Protocol: The array consisted of 609 compounds covering glycans and polysaccharides printed onto commercial NHS-activated Slide H (Schott Nexterion, Jena, Germany), tested with 100 µg/mL biotinylated rGal-5 and involving Alexa555-labeled streptavidin (Thermo Fisher Scientific, Eugene, OR, USA) as second-step reagent for Innoscan 1100AL scanner-based (Innopsys, Carbonne, France) signal qualification, expressed in medium relative fluorescence units (RFU) and medium absolute deviation (MAD), as described previously. When the fluorescence intensity exceeded the background value by a factor of five, the respective signal was considered to be significant.

rat galectin-5 (rGal-5) [2] = biological target: T1, rat galectin-5 (rGal-5); assay: Isothermal titration calorimetry (ITC) of ligand binding to recombinant rGal-5
Protocol: The spacered B (type 2) tetrasaccharide was synthesized as described previously. Titrations were monitored in a PEAQ-ITC calorimeter (Malvern, Westborough, MA, USA), using a galectin-containing solution of 250 µL in PBS (10 mM Na2HPO4, 2 mM KH2PO4, 137 mM NaCl and 3 mM KCl at pH 6.8) containing 10 mM β-mercaptoethanol and injections at 150 s intervals of 2 µL ligand-containing solution (up to adding 36.4 µL) at 25 °C (750 rpm), as described. The protein concentration was 125 μM, and the ligand concentration in the syringe was 2.5 mM. In each titration, a fitted offset parameter was applied to account for potential background. Data processing was performed using the MiroCal PEAQ-ITC Analysis software.

[3] = 25 °C, individual titration, protein 125 μM, ligand 2.5 mM in syringe, PBS pH 6.8, read-out: Kd
[4] = (summarises Table 2), read-out: dissociation constant

T1 sequence (P47967 whole entry): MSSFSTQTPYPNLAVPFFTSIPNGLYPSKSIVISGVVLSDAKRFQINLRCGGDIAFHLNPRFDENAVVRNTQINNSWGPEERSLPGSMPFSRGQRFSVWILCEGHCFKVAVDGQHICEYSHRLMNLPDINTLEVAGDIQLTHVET

Row | Stoichiometry (rat galectin-5 (rGal-5) [2]; 25 °C, individual titration) | ΔG0obs (rat galectin-5 (rGal-5) [2]; 25 °C, individual titration) | −TΔS0obs (rat galectin-5 (rGal-5) [2]; 25 °C, individual titration) | Kd (rat galectin-5 (rGal-5) [2]; [3]) | Kd (rat galectin-5 (rGal-5) [2]; [4]) | Compound | signal intensity in glycan array (rat galectin-5 (rGal-5) [1]) | ΔH0obs (rat galectin-5 (rGal-5) [2]; 25 °C, individual titration)
1 |  |  |  |  |  | CC(=O)N[C@H]1C(O)O[C@H](CO)[C@@H](O[C@@H]2O[C@H](CO)[C@H](O)[C@H](O[C@H]3O[C@H](CO)[C@H](O)[C@H](O)[C@H]3O)[C@H]2O)[C@@H]1O (some centres unmarked) | frontrunners in terms of signal intensity | 
2 | 0.95 ± 0.05 and 0.99 ± 0.06 | -5.35 kcal/mol and -5.22 kcal/mol | -0.36 kcal/mol and -0.18 kcal/mol | 121 µM and 151 µM | 136 ± 16 µM | OC[C@H]1O[C@@H](O[C@H]2[C@H](O)[C@@H](O)C(O)O[C@@H]2CO)[C@H](O)[C@@H](O)[C@H]1O (mixture of isomers) [Lactose, lactose] |  | -4.99 ± 0.08 kcal/mol and -5.03 ± 0.41 kcal/mol
3 | 0.92 ± 0.01 and 0.94 ± 0.20 | -6.1 kcal/mol and -6.0 kcal/mol | 3.87 kcal/mol and 4.43 kcal/mol | 28.6 µM and 32.3 µM | 30.5 ± 1.9 µM | CC(=O)N[C@H]1C(O)O[C@H](CO)[C@@H](O[C@@H]2O[C@H](CO)[C@H](O)[C@H](O)[C@H]2O)[C@@H]1O (some centres unmarked) [LacNAc, N-acetyllactosamine] |  | -10.0 ± 0.2 kcal/mol and -10.5 ± 2.6 kcal/mol
4 | 0.98 ± 0.01 and 0.94 ± 0.01 | -7.11 kcal/mol | -1.37 kcal/mol and -1.51 kcal/mol | 5 µM and 6.1 µM | 5.5 ± 0.6 µM | histo-blood-group B (type 2) tetrasaccharide [Tetrasacc haride] | frontrunners in terms of signal intensity | -5.74 ± 0.03 kcal/mol and -5.60 ± 0.03 kcal/mol
